Assay results published in patent US20230339991A1, “HYPOXIA-ACTIVATED DNA ALKYLATING AGENT AND MEDICAL USE THEREOF” (ASCENTAWITS PHARMACEUTICALS, LTD., priority 2020, published 2023).
Like-named read-outs stand apart in the source and are kept apart here.

Columns and labels:
H460 cancer cells = test: Hypoxia-dependent proliferation inhibition, H460, CTG; type: cell-based, human; details: for IC50: Homo sapiens, 3 h exposure
Description: To determine the effect of the drug A according to the present invention on cancer cell proliferation, the antiproliferative activity of these compounds against the cancer cell was detected in a porous CTG-based assay. The effects of test compounds on cell proliferation under normoxic (21% O2) and hypoxic (<0.01% O2) conditions were compared. H460 cells were routinely cultured to 80%-90% of cell saturation, and when the number reached the requirement, resuspended with the corresponding culture medium, counted and prepared into cell suspension with appropriate density. The cell suspension was added to two types of 24-well plates, 495 μL per well with 1×10^4/well of cell density. 24-well plates inserted with glass insert were used for hypoxic tests, and ordinary plastic 24-well plates were used for normoxic tests. 5 μL of each compound was added to the hypoxic and normoxic reaction systems, respectively. After reacting for 3 hours in the hypoxic workstation or the normoxic incubator, the compounds were washed away using the culture medium and the system was placed in an incubator for another 72 hours. The final concentrations of each compound tested under normoxic conditions were as follows: TH-302 was 1000, 200, 40, 8, 1.6, 0.32 μM; test compound A (compound 32) was 1000, 200, 40, 8, 1.6, 0.32 μM; compound 26 was 500, 50, 5, 0.5, 0.05 μM. The final concentrations of each compound tested under hypoxic conditions were as follows: TH-302 was 10, 2, 0.4, 0.08, 0.016, 0.0032 μM; test compound A (compound 32) was 50, 5, 0.5, 0.05, 0.005, 0.0005 μM; compound 26 was 500, 50, 5, 0.5, 0.05 μM. After 72 hours of cell culture, 300 μL of culture medium was removed from each well of 24-well plate. 50 μL of CTG was added into each well. The plate was mixed and shaked for 2 min, and kept in dark for 15 minutes at room temperature. 100 μL per well of culture medium was transferred from 24-well plate to 96-well white plate, and the chemiluminescence signal value was read with Multifunctional enzyme marker with a reading time of 1000 ms. The IC50 was calculated using GraphPad Prism 5 software. […] The compound TH-302 (a hypoxic-activated prodrug entering phase III clinical studies, cas No. 918633-87-1, see the literature Sun J D, Liu Q, Wang J, et al. Selective tumor hypoxia targeting by hypoxia-activated prodrug TH-302 inhibits tumor growth in preclinical models of cancer. [J]. Clinical Cancer Research An Official Journal of the American Association for Cancer Research, 2012, 18(3): 758-70, structural formula is […]

hepatoma cell HepG2 = test: Hypoxia-dependent proliferation inhibition, HepG2; type: cell-based, human; details: for IC50: Homo sapiens; for HCR (hypoxic cytotoxicity ratio): IC50 ratio normoxia/N2
Description: To determine the effect of the drug A according to the present invention on cancer cell proliferation, the antiproliferative activity of these compounds against the cancer cell was detected in a porous CTG-based assay. The effects of test compounds on cell proliferation under normoxic (21% O2) and hypoxic (<0.01% O2) conditions were compared. H460 cells were routinely cultured to 80%-90% of cell saturation, and when the number reached the requirement, resuspended with the corresponding culture medium, counted and prepared into cell suspension with appropriate density. The cell suspension was added to two types of 24-well plates, 495 μL per well with 1×10^4/well of cell density. 24-well plates inserted with glass insert were used for hypoxic tests, and ordinary plastic 24-well plates were used for normoxic tests. 5 μL of each compound was added to the hypoxic and normoxic reaction systems, respectively. After reacting for 3 hours in the hypoxic workstation or the normoxic incubator, the compounds were washed away using the culture medium and the system was placed in an incubator for another 72 hours. The final concentrations of each compound tested under normoxic conditions were as follows: TH-302 was 1000, 200, 40, 8, 1.6, 0.32 μM; test compound A (compound 32) was 1000, 200, 40, 8, 1.6, 0.32 μM; compound 26 was 500, 50, 5, 0.5, 0.05 μM. The final concentrations of each compound tested under hypoxic conditions were as follows: TH-302 was 10, 2, 0.4, 0.08, 0.016, 0.0032 μM; test compound A (compound 32) was 50, 5, 0.5, 0.05, 0.005, 0.0005 μM; compound 26 was 500, 50, 5, 0.5, 0.05 μM. After 72 hours of cell culture, 300 μL of culture medium was removed from each well of 24-well plate. 50 μL of CTG was added into each well. The plate was mixed and shaked for 2 min, and kept in dark for 15 minutes at room temperature. 100 μL per well of culture medium was transferred from 24-well plate to 96-well white plate, and the chemiluminescence signal value was read with Multifunctional enzyme marker with a reading time of 1000 ms. The IC50 was calculated using GraphPad Prism 5 software. […] The compound TH-302 (a hypoxic-activated prodrug entering phase III clinical studies, cas No. 918633-87-1, see the literature Sun J D, Liu Q, Wang J, et al. Selective tumor hypoxia targeting by hypoxia-activated prodrug TH-302 inhibits tumor growth in preclinical models of cancer. [J]. Clinical Cancer Research An Official Journal of the American Association for Cancer Research, 2012, 18(3): 758-70, structural formula is
Similarly, the above-mentioned three compounds were tested for the proliferation inhibition effect on hepatoma cell HepG2, and the results are shown in the following table 5.

[1] = Liver microsome stability, human; details: for Remaining percentage after 30 minutes: Human
Experimental: (§1) 1) Two individual experiments were performed.
(§2) 1a) With NADPH: 10 μL of 20 mg/mL liver microsomes and 40 μL of 10 mM NADPH were added to the culture solution. The final concentrations of microsomes and NADPH were 0.5 mg/mL and 1 mM, respectively.
(§3) 1b) Without NADPH: 10 μL of 20 mg/mL liver microsomes and 40 μL of ultrapure H2O were added to the culture solution. The final concentration of microsomes was 0.5 mg/mL.
(§4) 3) 50 μL of aliquots were taken from the reaction solution at 0 min and 30 min. The reaction was terminated by adding 4 volumes of cold acetonitrile and four internal standards (IS, 100 nM alprazolam, 200 nM caffeine, 200 nM labetalol and 2 μM ketoprofen). The samples were centrifuged at 3, 220×g for 40 min. The aliquots of 100 μL of supernatant were mixed with 100 μL of ultrapure H2O and then used for LC-MS/MS analysis. All experiments were performed in duplicate.

[2] = Liver microsome stability, dog; details: for Remaining percentage after 30 minutes: Dog
Experimental: as §1, §2, §3, §4

[3] = Liver microsome stability, rat; details: for Remaining percentage after 30 minutes: Rat
Experimental: as §1, §2, §3, §4

[4] = Liver microsome stability, mouse; details: for Remaining percentage after 30 minutes: Mouse
Experimental: as §1, §2, §3, §4

[5] = NCI-H460, hypoxic (<0.01% O2), read-out: N2 IC50
[6] = NCI-H460, normoxic (21% O2), read-out: Normoxic IC50
[7] = N2 (hypoxic), read-out: IC50 N2
[8] = normoxia, read-out: IC50 Normoxia

For `Cn1c(COP(=O)(NCCBr)NCCBr)cnc1[N+](=O)[O-]` [TH-302, Evofosfamide], the “IC50 ratio: Normoxia/N2” value (H460 cancer cells) was 680, the IC50 (H460 cancer cells; [5]) was 0.02 µM and the IC50 (H460 cancer cells; [6]) was 13.6 µM. The IC50 (hepatoma cell HepG2; [7]) was 12.4 µM, the IC50 (hepatoma cell HepG2; [8]) was 918 µM and the “HCR (hypoxic cytotoxicity ratio)” value (hepatoma cell HepG2) was 72.82.
For `O=[N+]([O-])c1ccc(C(OP(=O)(N2CC2)N2CC2)C(F)(F)F)c2ccccc12` (racemic) [Compound A], the “IC50 ratio: Normoxia/N2” value (H460 cancer cells) was 12.5, the IC50 (H460 cancer cells; [5]) was 0.04 µM and the “stability in liver microsomes” value ([1]; human) was “relatively stable”. For the same molecule, the “stability in liver microsomes” value ([2]; canine) was “not stable”, the IC50 (hepatoma cell HepG2; [7]) was 4.78 µM and the IC50 (hepatoma cell HepG2; [8]) was 20.6 µM. For the same molecule, the “HCR (hypoxic cytotoxicity ratio)” value (hepatoma cell HepG2) was 4.31, the “stability in liver microsomes” value ([3]; rat) was “not stable” and the “stability in liver microsomes” value ([4]; mouse) was “relatively stable”.
For `O=[N+]([O-])c1ccc([C@@H](OP(=O)(N2CC2)N2CC2)C(F)(F)F)c2ccccc12` (single isomer, unassigned) [Compound C], the “Remaining percentage after 30 minutes” value ([1]; without NADPH) was 82.15%, the “Remaining percentage after 30 minutes” value ([2]; with NADPH) was 31.16% and the “Remaining percentage after 30 minutes” value ([2]; without NADPH) was 101.62%. For the same molecule, the “Remaining percentage after 30 minutes” value ([3]; with NADPH) was 71.05%, the “Remaining percentage after 30 minutes” value ([3]; without NADPH) was 111.15% and the “Remaining percentage after 30 minutes” value ([4]; with NADPH) was 102.89%. For the same molecule, the “Remaining percentage after 30 minutes” value ([4]; without NADPH) was 103.07%.
In the case of `CC(OP(=O)(N1CC1)N1CC1)c1ccc([N+](=O)[O-])c2ccccc12` (stereo not drawn) [Compound D], the “IC50 ratio: Normoxia/N2” value (H460 cancer cells) is reported as 20, the IC50 (H460 cancer cells; [5]) is reported as 0.04 µM and the IC50 (H460 cancer cells; [6]) is reported as 0.8 µM. For the same molecule, the “Remaining percentage after 30 minutes” value ([1]; with NADPH, 2 μM) was 74.28%, the “Remaining percentage after 30 minutes” value ([1]; without NADPH) was 107.67% and the “Remaining percentage after 30 minutes” value ([2]; with NADPH) was 9.97%. For the same molecule, the “Remaining percentage after 30 minutes” value ([2]; without NADPH) was 99.10%, the IC50 (hepatoma cell HepG2; [7]) was 1.5 µM and the IC50 (hepatoma cell HepG2; [8]) was 16.7 µM. For the same molecule, the “HCR (hypoxic cytotoxicity ratio)” value (hepatoma cell HepG2) was 11.13, the “Remaining percentage after 30 minutes” value ([3]; with NADPH) was 6.81% and the “Remaining percentage after 30 minutes” value ([3]; without NADPH) was 103.00%. For the same molecule, the “Remaining percentage after 30 minutes” value ([4]; with NADPH) was 32.37% and the “Remaining percentage after 30 minutes” value ([4]; without NADPH) was 96.37%.
